Laboratory results taken from patent publication US8178506B2, “Oligomeric compounds and compositions for use in modulation of small non-coding RNAs” (Regulus Therapeutics Inc., priority 2003, dated 2012).
In the oligonucleotide strings, read from the 5' end, every base follows the letter of its sugar. An asterisk marks phosphorothioate; unmarked linkages are phosphodiester. Other units and linkages are bracketed, terminal groups are in braces. A string of capitals states the bases alone. e = 2'-O-(2-methoxyethyl) (MOE); [5mC] = 5-methylcytosine; d = 2'-deoxy (DNA)

Columns and labels:
[1] = test system: mir-30a pri-miRNA; assay: mir-30a luciferase reporter (pGL3C-M30-4X) assay in 293T cells; assay type: cell-based, human; conditions: for percent control luciferase expression: 150 nM oligomeric compound, then mir-30a pri-miRNA mimic 200 nM, pGL3C-M30-4X normalized to pRL-CMV; for reversing the mir-30a miRNA-mediated silencing of luciferase reporter: 150 nM, then mir-30a pri-miRNA mimic
From the text: In one embodiment of the invention, oligomeric compounds targeting the hairpin structure of mir-30a pri-miRNA were designed and tested for their effects on miRNA signaling in 293T cells (American Type Culture Collection (Manassas, Va.)).
A synthetic DNA fragment comprised of four tandem repeats of the target site for mir-30a was cloned into the vector pGL3-C (purchased from Promega Corp., Madison Wis.) at the unique XbaI site (pGL3C-M30-4X). This places the target site in the 3′UTR of the luciferase reporter vector. An oligomeric compound mimicking the mir-30a pri-miRNA ([…] […], herein incorporated as SEQ ID NO: 1749) was in vitro transcribed using T7 RNA polymerase and a DNA template produced by PCR (the T7 promoter is shown in bold).
On the day prior to the experiment 24-well plates were seeded with 293T cells at 50% confluency. The following morning cells were treated with oligomeric compounds targeted to the mir-30a pri-miRNA mimic. All of the compounds are 20 nucleobases in length having either a phosphorothioate backbone throughout (PS) or a phosphodiester backbone throughout (PO). […] All cytidine residues are 5-methylcytidines. The remaining compounds in the table have 2′-methoxyethoxy (MOE) nucleotides throughout with either a phosphorothioate (PS) or phosphodiester (PO) internucleoside linkages.
Cells were washed once with PBS then oligomeric compounds were added to triplicate wells at 150 nM in OPTI-MEM™ media and 4.5 μl/ml LIPOFECTIN™ reagent (Invitrogen Corporation, Carlsbad, Calif.). After 3 hours, the media was removed, and the cells were treated with the mir-30a pri-miRNA mimic at 200 nM in OPTI-MEM™ with 6 μl/ml LIPOFECTIN™ reagent. After 3 hours the media was removed from the cells. The reporter plasmid, pGL3C-M30-4X, was then transfected using SuperFect reagent. 20 μg of pGL3C-M30-4X and 2 μg of pRL-CMV, a plasmid expressing Renilla luciferase, were suspended in 600 μL of serum-free DMEM to which 120 μl of Superfect was added. After a 5 minute incubation, 6 mls of DMEM+10% FCS was added. 125 μL of the plasmid/SuperFect suspension was added to each well. After a 2 hour incubation cells were washed and fresh growth media added. Cells were incubated overnight.
The following morning the media was removed and the cells were lysed in 120 μL passive lysis buffer (PLB; Promega). 40 μL of the lysate was then assayed for Photinus (PL) and Renilla (RL) luciferases using a Dual Luciferase Assay kit (Promega) according to the manufacturer's protocol. The results below are given as percent pGL3C-M30-4× expression (PL) normalized to pRL-CMV expression (RL). The 20-nucleobase oligonucleotide random-mer ISIS Number 29848 was used as a negative control.

[2] = test system: HuVECs; assay: Endothelial tube formation assay in HuVECs; conditions: 75 nM oligomeric compound, Table 59
[3] = test system: IL-12 mRNA; assay: IL-12 mRNA in LPS-activated primary murine macrophages; assay type: cell-based, mouse; conditions: normalized to LPS-treated cells without oligomeric compound
[4] = test system: mir-15a pri-miRNA; assay: mir-15a pri-miRNA expression in T47D cells (real-time RT-PCR); assay type: cell-based, human; conditions: real-time RT-PCR
From the text: The gapmer oligomeric compounds targeting the mir-15b and mir-15-a-1 mature miRNAs described above were also transfected into T47D cells according to standard procedures. In addition, uniform 2′-MOE and 2′-MOE gapmer oligomeric compounds targeting the mature mir-15a-1 and mir-15b miRNAs were also transfected into T47D cells, for analysis of their effects on mir-15a-1 and mir-15b pri-miRNA levels. The oligomeric compounds ISIS Number 327927 (SEQ ID NO: 345), a uniform 2′-MOE compound and ISIS Number 345391 (SEQ ID NO: 345), a 2′-MOE 5-10-7 gapmer compound, both target mir-15b. The oligomeric compounds ISIS Number 327951 (SEQ ID NO: 369), a uniform 2′-MOE compound, and ISIS Number 345411 (SEQ ID NO: 369), a 2′-MOE 5-10-7 gapmer compound, both target mir-15a-1. Oligomeric compounds ISIS Number 129686 ([…]; SEQ ID NO: 901), and ISIS Number 129691 ([…]; SEQ ID NO:902), both universal scrambled controls, as well as ISIS Number 116847 ([…]; SEQ ID NO: 844) targeting an unrelated gene, PTEN, were used as negative controls. ISIS Numbers 129686, 129691, and 116847 are phosphorothiated 2′-MOE 5-10-5 gapmers, and all cytosines are 5-methylcytosines. T47D cells (seeded in 12-well plates) were treated with these oligomeric compounds, and RNA was isolated from the treated cells by lysing in 1 mL TRIZOL™ (Invitrogen) and total RNA was prepared using the manufacturer's recommended protocols. To assess the effects of these compounds on expression of the mir-15a or mir-15b pri-miRNA molecules, real-time RT-PCR analysis was performed using either the primer/probe set specific for the mir-15a pri-miRNA molecule described above, or a primer probe set specific for the mir-15b pri-miRNA molecule: ISIS 339320 ([…]; SEQ ID NO: 903) was used as the forward primer for the mir-15b pri-miRNA, ISIS 339321 ([…] ACTGT; SEQ ID NO: 904) was used as the reverse primer for the mir-15b pri-miRNA, and ISIS 339322 ([…]; SEQ ID NO: 905) was used as the probe. Total RNA was quantified using RiboGreen™ RNA quantification reagent (Molecular Probes, Inc. Eugene, Oreg.), expression levels observed for each target were normalized to 5.8S rRNA, and values are expressed relative to the untreated control. Inhibition of expression of the mir15a or mir-15b pri-miRNA molecules upon treatment with these oligomeric compounds is was assessed and expressed as a percentage of RNA levels in untreated control cells.
Using the real-time RT-PCR methods described, the expression levels of the mir-15a pri-miRNA were compared in T47D cells treated with the nested series of uniform 2′-MOE oligomeric compounds, targeting and spanning the entire length of the mir-15a pri-miRNA. The region encompassing the mir-15a primary transcript (the complement of nucleotides 31603159 to 31603468 of GenBank Accession number NT—024524.13; AAATAATTATG […]) is incorporated herein as SEQ ID NO: 906. ISIS Number 356215 (SEQ ID NO: 879) targets a region flanking and immediately 5′ to the predicted 5′ Drosha cleavage site in the mir-15a pri-miRNA. ISIS Number 356218 (SEQ ID NO: 881) targets aregion in the loop of the mir-15a pri-miRNA. ISIS 356227 (SEQ ID NO: 883) targets a region flanking and immediately 3′ to the predicted 3′ Drosha cleavage site in the mir-15a pri-miRNA. Additionally, oligomeric compound ISIS 327951 (SEQ ID NO: 369), a uniform 2′-MOE compound targeting the mature mir-15a-1 miRNA, was tested for comparison. Oligomeric compounds ISIS 327901 (SEQ ID NO: 319) targeting the mature mir-143 miRNA; ISIS 129690, ([…]; SEQ ID NO: 907), a phosphorothioate 5-10-5 MOE gapmer used as a universal scrambled control; and ISIS 116847 ([…]; SEQ ID NO: 844), a uniform 5-10-52′-MOE gapmer targeting an unrelated gene, PTEN, were used as negative controls. Using the transfection methods previously described, T47D cells were treated with 100 nM of each of these oligomeric compounds. […]

[5] = test system: mir-15a miRNA; assay: pGL3-mir-15a sensor luciferase assay in HeLa cells; assay type: cell-based, human; conditions: pGL3-mir-15a sensor-expressing HeLa cells
From the text: In order to assess the ability of miRNAs to bind predicted miRNA binding sites and regulate the expression of the luciferase reporter, in some embodiments, expression systems based on the pGL3-Control (Promega Corp., Madison Wis.) reporter vector and comprising either a mir-15a, mir-21, or a mir-23b miRNA binding site were developed and used in transient transfections of HeLa cells to determine whether the endogenous mir-15a, mir-21, or mir-23b miRNAs, respectively, could repress luciferase reporter gene expression.
The pGL3-mir-15a sensor plasmid was created by cloning the sequence ([…]; SEQ ID NO: 369), complementary to the mir-15a miRNA, into the Xba site of the pGL3-Control plasmid, placing the potential miRNA-binding site in the 3′UTR of the luciferase reporter. This reporter plasmid was used to transfect HeLa cells and it was observed that the endogenous mir-15a miRNA was able to inhibit luciferase expression from the pGL3-mir-15a sensor plasmid. Thus, to further evaluate the ability of the mir-15a miRNA to bind this target site encoded by the pGL3-mir-15a sensor plasmid, and to assess the ability of oligomeric compounds to interfere with mir-15a-mediated silencing, pGL3-mir-15a sensor-expressing HeLa cells were treated with varying concentrations (3-, 10- or 30 nM) of the following oligomeric compounds: ISIS Number 327951 (SEQ ID NO: 369) is a uniform 2′-MOE compound targeting the mature mir-15a-1 miRNA. ISIS Numbers 356213 (SEQ ID NO: 878), 356215 (SEQ ID NO: 879), 356216 (SEQ ID NO: 880), 356218 (SEQ ID NO: 881), 356221 (SEQ ID NO: 882), 356227 (SEQ ID NO: 883) and 356229 (SEQ ID NO: 884) are phosphorothioate, uniform 2′-MOE oligomeric compounds designed and synthesized to target the entire length of the mir-15a pri-miRNA molecule (described in detail in Example 28, below). […] The data presented in Table 42 are the average of three trials and are presented as percent untreated control (luciferase plasmid only, not treated with oligomeric compound) luciferase expression, normalized to pRL-CMV levels.

Row | Substance | percent control luciferase expression [1] [percent control] | reversing the mir-30a miRNA-mediated silencing of luciferase reporter [1] | further results
1 | 327874 (antisense eG*e[5mC]*eT*eG*e[5mC]*eA*eA*eA*e[5mC]*eA*eT*e[5mC]*e[5mC]*eG*eA*e[5mC]*eT*eG*eA*eA*eA*eG) [compound 327874] | 66 |  | % Activity Relative to UTC (tube formation) [2]: 46.7%; IL-12 mRNA expression, −IFN % UTC ([3]; 300 nM oligomeric compound and LPS, no IFN-gamma pretreatment, single experiment): 202 % UTC; IL-12 mRNA expression, +IFN % UTC ([3]; 300 nM oligomeric compound, stimulation with IFN-gamma and LPS, average of 2 experiments): 15 % UTC
2 | 328085 (antisense CATCTGTGGCTTCACAGCTT; all 2'-MOE, all phosphorothioate, methylation of C not given here; designed as pseudo half-knot compound) [compound 328085] | 72 |  | 
3 | 328086 (antisense e[5mC]*eA*eT*e[5mC]*eT*dG*dT*dG*dG*d[5mC]*dT*dT*d[5mC]*dA*d[5mC]*eA*eG*e[5mC]*eT*eT) [compound 328086] | 95 |  | 
4 | 328087 (antisense AAGCCCATCTGTGGCTTCAC; all 2'-MOE, all phosphorothioate, methylation of C not given here; pseudo half-knot design targeting pri-miRNA hairpin) [compound 328087] | 83 |  | 
5 | 328088 (antisense eA*eA*eG*e[5mC]*e[5mC]*d[5mC]*dA*dT*d[5mC]*dT*dG*dT*dG*dG*d[5mC]*eT*eT*e[5mC]*eA*e[5mC]) [compound 328088] | 107 |  | 
6 | 356213 (eT*eA*eT*eA*eA*e[5mC]*eA*eT*eT*eG*eA*eT*eG*eT*eA*eA*eT*eA*eT*eG) [compound 356213] |  |  | mir-15a pri-miRNA expression % UTC [4]: 171 % UTC; Relative luciferase activity ([5]; 3 nM): 101.2; Relative luciferase activity ([5]; 10 nM): 80.5; Relative luciferase activity ([5]; 30 nM): 109.9
7 | ISIS 328086: 5-10-5 2′-MOE gapmer, pseudo half-knot compound targeting the mir-30a pri-miRNA (antisense e[5mC]*eA*eT*e[5mC]*eT*dG*dT*dG*dG*d[5mC]*dT*dT*d[5mC]*dA*d[5mC]*eA*eG*e[5mC]*eT*eT; pseudo half-knot compound) |  | restoring luciferase reporter expression to near control levels | 
8 | ISIS 328087: 2′-MOE throughout; pseudo half-knot compound targeting the mir-30a pri-miRNA (antisense AAGCCCATCTGTGGCTTCAC; all 2'-MOE, all phosphorothioate, methylation of C not given here; pseudo half-knot design targeting pri-miRNA hairpin) |  | restoring luciferase reporter expression to near control levels | 
9 | ISIS 328088: 5-10-5 2′-MOE gapmer, pseudo half-knot compound targeting the mir-30a pri-miRNA (antisense eA*eA*eG*e[5mC]*e[5mC]*d[5mC]*dA*dT*d[5mC]*dT*dG*dT*dG*dG*d[5mC]*eT*eT*e[5mC]*eA*e[5mC]; pseudo half-knot compound) |  | restoring luciferase reporter expression to near control levels | 
